Measurements published in ChEMBL document CHEMBL4364263, “Synthesis and biological evaluation of 2,4,5-trisubstituted thiazoles as antituberculosis agents effective against drug-resistant tuberculosis” (Eur J Med Chem, 2019).
Converted amounts (≈) assume the structure as drawn.

Experiments:
Format in all cases: functional
[1] = test system: Mycobacterium tuberculosis; experiment: Antitubercular activity against isoniazid, streptomycin, ethionamide, ethambutol, rifampicin and ofloxacin resistant Mycobacterium tuberculosis isolate 8 assessed as growth inhibition
[2] = test system: Mycobacterium tuberculosis; experiment: Antitubercular activity against isoniazid, streptomycin, ethionamide and ethambutol resistant Mycobacterium tuberculosis isolate 1 assessed as growth inhibition
[3] = test system: Mycobacterium tuberculosis; experiment: Antitubercular activity against isoniazid and ethionamide resistant Mycobacterium tuberculosis isolate 5 assessed as growth inhibition
[4] = test system: Mycobacterium tuberculosis; experiment: Antitubercular activity against isoniazid, streptomycin and rifampicin resistant Mycobacterium tuberculosis isolate 3 assessed as growth inhibition
[5] = test system: Mycobacterium tuberculosis; experiment: Antitubercular activity against isoniazid and rifampicin resistant Mycobacterium tuberculosis isolate 4 assessed as growth inhibition
[6] = test system: Mycobacterium tuberculosis; experiment: Antitubercular activity against isoniazid, streptomycin and ethionamide resistant Mycobacterium tuberculosis isolate 6 assessed as growth inhibition
[7] = test system: Mycobacterium tuberculosis; experiment: Antitubercular activity against isoniazid, streptomycin, ethionamide, ethambutol and rifampicin resistant Mycobacterium tuberculosis isolate 7 assessed as growth inhibition
[8] = test system: Mycobacterium tuberculosis; experiment: Antitubercular activity against isoniazid and ethionamide resistant Mycobacterium tuberculosis isolate 2 assessed as growth inhibition

## CCOC(=O)c1nc(C2CCCCC2)sc1-c1ccc(C#N)cc1
[1]
  MIC: > 32 µg/mL
[2]
  MIC: 8 µg/mL (≈ 23.5 µM)
[3]
  MIC: 8 µg/mL (≈ 23.5 µM)
[4]
  MIC: 16 µg/mL (≈ 47 µM)
[5]
  MIC: 4 µg/mL (≈ 11.7 µM)
[6]
  MIC: 8 µg/mL (≈ 23.5 µM)
[7]
  MIC: 16 µg/mL (≈ 47 µM)
[8]
  MIC: 8 µg/mL (≈ 23.5 µM)
